These results are taken from ChEMBL document CHEMBL1138548, “Three-dimensional QSAR analyses of 1,3,4-trisubstituted pyrrolidine-based CCR5 receptor inhibitors” (Eur J Med Chem, 2008).

What is called IC50 is the concentration that gives 50% inhibition. A lower IC50 goes with inhibition by little substance.

SMILES strings stand for the structures.

For this assay, the target named is C-C chemokine receptor type 5 (Homo sapiens, UniProt P51681). Nature of the assay: biochemical. The format is cell-based, CHO.
Chain of C-C chemokine receptor type 5 (P51681 whole entry): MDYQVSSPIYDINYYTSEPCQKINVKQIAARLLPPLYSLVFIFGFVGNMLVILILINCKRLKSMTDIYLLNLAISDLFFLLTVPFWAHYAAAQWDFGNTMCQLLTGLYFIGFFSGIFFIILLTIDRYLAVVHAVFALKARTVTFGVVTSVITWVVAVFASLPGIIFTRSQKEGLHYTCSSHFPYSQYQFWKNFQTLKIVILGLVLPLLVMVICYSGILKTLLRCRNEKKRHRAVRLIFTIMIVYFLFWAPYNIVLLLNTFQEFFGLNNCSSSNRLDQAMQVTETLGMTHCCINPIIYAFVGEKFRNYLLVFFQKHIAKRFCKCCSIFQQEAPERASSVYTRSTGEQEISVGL
Description: Displacement of [125I]MIP1alpha from human CCR5 expressed in CHO cells
In the case of `CCn1nc(-c2ccc(CN)cc2)cc1C1CCN(C[C@H]2CN([C@@H](C(=O)O)C3CCCCC3)C[C@@H]2c2ccccc2)CC1`, the midpoint of inhibition, the IC50, lay at 122 nM.

`CCc1nc(Cc2ccccc2)oc1C1CCN(C[C@H]2CN([C@H](CC3CCC3)C(=O)O)C[C@@H]2c2ccccc2)CC1`: 0.89 nM corresponded to half-maximal inhibition (IC50). Turning to `O=C(O)[C@@H](CC1CCCCC1)N1C[C@H](CN2CCC(CCC(F)(F)c3ccc(F)cc3)CC2)[C@@H](c2ccccc2)C1`, half-maximal inhibition (IC50) was put at 0.3 nM. `Cn1nnc(-c2ccc(CCCC3(O)CCN(C[C@H]4CN(CC5CCCCC5)C[C@@H]4c4ccccc4)CC3)cc2)n1` had an IC50 of 0.4 nM. The molecule `CCn1nc(C(C)(C)c2ccccc2)cc1C1CCN(C[C@H]2CN([C@@H](C(=O)O)C3CCCCC3)C[C@@H]2c2ccccc2)CC1` showed an IC50 of 6.9 nM.

With `C=C(Cc1ccccc1)[C@@H](C1CCCCC1)N1C[C@H](CN2CCC(O)(CCCc3ccccc3)CC2)[C@@H](c2ccccc2)C1`, the IC50 stood at 3.6 nM. Molecule `CC(C)C[C@H](C(=O)O)N1C[C@H](CN2CCC(CCS(=O)(=O)c3ccc(F)cc3)CC2)[C@@H](c2cccc(F)c2)C1` came in with an IC50 of 0.9 nM. Compared with the last molecule, the IC50 is about 4-fold lower. Turning to `CCc1nc(Cc2ccccc2)sc1C1CCN(C[C@H]2CN([C@H](CC3CCC3)C(=O)O)C[C@@H]2c2ccccc2)CC1`, half-maximal inhibition (IC50) was put at 0.76 nM. `O=C(O)[C@@H](C1CCCCC1)N1C[C@H](CN2CCC(c3cc(Cc4ccccc4)on3)CC2)[C@@H](c2ccccc2)C1` had an IC50 of 1.2 nM. Against the preceding molecule, the IC50 is about 1.6-fold higher. Consider `CC(C)C[C@H](C(=O)O)N1C[C@H](CN2CCC(CCSc3ccc(F)cc3)CC2)[C@@H](c2cccc(F)c2)C1`, for which the half-inhibitory concentration (IC50) stood at 0.8 nM. Take `CC(C)C[C@H](C(=O)O)N1C[C@H](CN2CCC(CCC(F)(F)c3ccc(F)cc3)CC2)[C@@H](c2cccc(F)c2)C1`: half-maximal inhibition (IC50) required 0.5 nM. `O=C(O)[C@@H](CC1CCC1)N1C[C@H](CN2CCC(c3[nH]c(Cc4ccccc4)nc3Cl)CC2)[C@@H](c2ccccc2)C1` gave a half-maximal inhibitory concentration (IC50) of 0.6 nM. Consider `O=C(O)[C@@H](CC1CCC1)N1C[C@H](CN2CCC(c3nnc4ccccn34)CC2)[C@@H](c2cccc(F)c2)C1`, for which the concentration for half-maximal inhibition (IC50) is 12 nM. This IC50 lies about 20-fold higher than the previous one. For the molecule `CCc1nc(Cc2ccccc2)sc1C1CCN(C[C@H]2CN([C@H](CC(C)C)C(=O)O)C[C@@H]2c2ccccc2)CC1`, inhibition was half-maximal at 1 nM (IC50).

For the molecule `O=C(O)[C@@H](C1CCCCC1)N1C[C@H](CN2CCC(c3cc(C(F)(F)c4ccccc4)n[nH]3)CC2)[C@@H](c2ccccc2)C1`, the half-inhibitory concentration (IC50) was found to be 2.1 nM. Regarding `CC(C)(c1ccccc1)c1cc(C2CCN(C[C@H]3CN([C@@H](C(=O)O)C4CCCCC4)C[C@@H]3c3ccccc3)CC2)[nH]n1`, the IC50 worked out at 11.5 nM. Compared with the last molecule, the IC50 is about 5.5-fold higher. As to `CCc1nc(Cc2ccccc2)[nH]c1C1CCN(C[C@H]2CN([C@H](CC3CCC3)C(=O)O)C[C@@H]2c2ccccc2)CC1`, inhibition was half-maximal at 0.57 nM (IC50). Compared with the last molecule, the IC50 is about 20-fold lower. For `O=C(O)[C@@H](CC1CC1)N1C[C@H](CN2CCC(CCC(OCCO)c3ccc(F)cc3)CC2)[C@@H](c2cccc(F)c2)C1` (some centres not stated), the IC50 is 3.7 nM.

In the case of `O=C(O)[C@@H](CC1CCC1)N1C[C@H](CN2CCC(c3cnc(Cc4ccccc4)s3)CC2)[C@@H](c2ccccc2)C1`, the concentration for half-maximal inhibition (IC50) came out at 0.23 nM. Molecule `O=C(O)[C@@H](C1CCCCC1)N1C[C@H](CN2CCC(c3cc(Cc4ccccc4)no3)CC2)[C@@H](c2ccccc2)C1` showed a concentration for half-maximal inhibition (IC50) of 0.8 nM. In turn, `O=C(O)[C@@H](CC1CCC1)N1C[C@H](CN2CCC(c3cn4cccnc4n3)CC2)[C@@H](c2cccc(F)c2)C1` showed an IC50 of 200 nM.

Molecule `O=C(O)[C@@H](CC1CC1)N1C[C@H](CN2CCC(c3cnc(Cc4ccccc4)s3)CC2)[C@@H](c2ccccc2)C1` registered an IC50 of 0.23 nM.
